Measured values reported in US20230233555A1 (AbbVie Inc., priority 2022, published 2023).

Legend:
[1] = system: CYP1A2, CYP3A, CYP2D6, CYP2C9, CYP2C19, CYP2B6; experiment: Drug interaction studies: effect of upadacitinib on co-administered drugs / in vivo markers of CYP activity (cocktail study); settings: for AUC Ratio (90% CI) of co-administered drug, with upadacitinib vs alone / Cmax Ratio (90% CI) of co-administered drug, with upadacitinib vs alone: extended-release
[2] = system: patients with moderately to severely active rheumatoid arthritis, naive to MTX; experiment: Trial RA-I (NCT02706873); type: in vivo, human; settings: for CRP / Number of swollen joints (0-66) / Number of tender joints (0-68) / Pain / Patient global assessment / Physician global assessment: mean; for Pain / Patient global assessment / Physician global assessment: visual analog scale 0 = best, 100 = worst
Protocol: The primary endpoint was the proportion of patients who achieved an ACR50 response at Week 12. Key secondary endpoints included disease activity score (DAS28-CRP) ≤3.2 at Week 12, DAS28-CRP <2.6 at Week 24, change from baseline in HAQ-DI at Week 12, and change from baseline in van der Heijde-modified total Sharp Score (mTSS) at Week 24.
Inhibition of progression of structural joint damage was assessed using the modified Total Sharp Score (mTSS) and its components, the erosion score and joint space narrowing score, at Week 26 in Trial RA-IV and Week 24 in Trial RA-I. The proportion of patients with no radiographic progression (mTSS change from baseline […]) was also assessed.

[3] = system: patients with rheumatoid arthritis; experiment: Rheumatoid arthritis Phase 3 trials, integrated datasets (RA-I to RA-V)
Description: Exposure adjusted incidence rates were adjusted by trial for all the adverse events reported in this section.
Patients 18 years of age and older were eligible to participate. The presence of at least 6 tender and 6 swollen joints and evidence of systemic inflammation based on elevation of hsCRP was required at baseline.

[4] = system: patients with moderately to severely active rheumatoid arthritis, inadequate response to MTX; experiment: Trial RA-II (NCT02706951); type: in vivo, human; settings: for CRP / Number of swollen joints (0-66) / Number of tender joints (0-68) / Pain / Patient global assessment / Physician global assessment: Trial RA-II, MTX-IR, monotherapy, mean; for Pain / Patient global assessment / Physician global assessment: visual analog scale 0 = best, 100 = worst; for CRP, mean / Number of swollen joints (0-66), mean / Number of tender joints (0-68), mean / Pain (visual analog scale 0-100), mean / Patient global assessment (visual analog scale 0-100), mean / Physician global assessment (visual analog scale 0-100), mean: RA-II
Description: The primary endpoint was the proportion of patients who achieved an ACR20 response at Week 14. Key secondary endpoints included DAS28-CRP ≤3.2, DAS28-CRP <2.6, and change from baseline in HAQ-DI at Week 14.

[5] = Baseline, Trial RA-I, MTX-naïve, monotherapy, RINVOQ 15 mg or MTX
[6] = RA-I MTX-naive monotherapy, Week 12, RINVOQ 15 mg or MTX
[7] = RA-I MTX-naive monotherapy, Week 24, RINVOQ 15 mg or MTX
[8] = RA-I, Baseline, RINVOQ 15 mg or MTX
[9] = RA-I, Week 12, RINVOQ 15 mg or MTX
[10] = Week 12 (primary efficacy timepoint), Trial RA-I, MTX-naïve, monotherapy, RINVOQ 15 mg or MTX
[11] = MTX-controlled RA-I and RA-II, 12/14 weeks, 15 mg monotherapy (or MTX monotherapy arm)
[12] = MTX-controlled trials, up to 12/14 weeks, 15 mg (or MTX arm)
[13] = RA-II MTX-IR monotherapy, Week 14, RINVOQ 15 mg or MTX
[14] = Week 14 (primary efficacy timepoint), RINVOQ 15 mg or MTX

Cc1ncc2n1-c1ccc(Cl)cc1C(c1ccccc1F)=NC2 [Midazolam]
Decrease in exposure of oral midazolam (sensitive CYP3A4 substrate) ([1]; repeated doses of upadacitinib 30 mg): 26% | AUC Ratio (90% CI) of co-administered drug, with upadacitinib vs alone ([1]; upadacitinib 30 mg QD): 0.74 (0.68-0.80) | Cmax Ratio (90% CI) of co-administered drug, with upadacitinib vs alone ([1]; upadacitinib 30 mg QD): 0.74 (0.68-0.80) | AUC Ratio (90% CI) of co-administered drug, with upadacitinib vs alone ([1]; upadacitinib 45 mg QD): 0.76 (0.69-0.83) | Cmax Ratio (90% CI) of co-administered drug, with upadacitinib vs alone ([1]; upadacitinib 45 mg QD): 0.75 (0.69-0.83)

COc1ccc2c(c1)[C@]13CCCC[C@@H]1[C@H](C2)N(C)CC3 [Dextromethorphan]
AUC Ratio (90% CI) of co-administered drug, with upadacitinib vs alone ([1]; upadacitinib 30 mg QD): 1.07 (0.95-1.22) | Cmax Ratio (90% CI) of co-administered drug, with upadacitinib vs alone ([1]; upadacitinib 30 mg QD): 1.09 (0.98-1.21) | AUC Ratio (90% CI) of co-administered drug, with upadacitinib vs alone ([1]; upadacitinib 45 mg QD): 1.35 (1.18-1.54) | Cmax Ratio (90% CI) of co-administered drug, with upadacitinib vs alone ([1]; upadacitinib 45 mg QD): 1.30 (1.13-1.50)

CN(Cc1cnc2nc(N)nc(N)c2n1)c1ccc(C(=O)N[C@@H](CCC(=O)O)C(=O)O)cc1 [MTX, methotrexate]
mTSS, Mean (SD) [2, 5]: 13.3 (31) | CRP [2, 5]: 21.2 mg/L | Number of swollen joints (0-66) [2, 5]: 17 | Number of tender joints (0-68) [2, 5]: 26 | Pain [2, 5]: 66 | Patient global assessment [2, 5]: 66 | Physician global assessment [2, 5]: 69 | ACR20 response, patients [2, 6]: 54% | ACR50 response, patients [2, 6]: 28% | ACR70 response, patients [2, 6]: 14% | DAS28-CRP <2.6, patients (proportion of responders) [2, 6]: 14% | ACR20 response, patients [2, 7]: 59% | ACR50 response, patients [2, 7]: 33% | ACR70 response, patients [2, 7]: 18% | DAS28-CRP <2.6, patients [2, 7]: 18% | mTSS, Mean (SD) ([2]; RA-I monotherapy, Baseline, RINVOQ 15 mg or MTX): 13.3 (31) | mTSS, mean change from baseline (SD) ([2]; RA-I monotherapy, Week 24, RINVOQ 15 mg or MTX): 0.67 (2.8) | Venous thrombosis, number of patients ([2]; RA-I through Week 24, 15 mg (or MTX arm)): 1 patients | CRP, mean [2, 8]: 21.2 mg/L | Number of swollen joints (0-66), mean [2, 8]: 17 | Number of tender joints (0-68), mean [2, 8]: 26 | Pain (visual analog scale 0-100), mean [2, 8]: 66 | Patient global assessment (visual analog scale 0-100), mean [2, 8]: 66 | Physician global assessment (visual analog scale 0-100), mean [2, 8]: 69 | CRP, mean [2, 9]: 10.9 mg/L | Number of swollen joints (0-66), mean [2, 9]: 6 | Number of tender joints (0-68), mean [2, 9]: 13 | Of DAS28-CRP <2.6 responders, proportion with 0 active joints [2, 9]: 51% | Of DAS28-CRP <2.6 responders, proportion with 1 active joint [2, 9]: 35% | Of DAS28-CRP <2.6 responders, proportion with 2 active joints [2, 9]: 9% | Of DAS28-CRP <2.6 responders, proportion with 3 or more active joints [2, 9]: 5% | Pain (visual analog scale 0-100), mean [2, 9]: 41 | Patient global assessment (visual analog scale 0-100), mean [2, 9]: 42 | Physician global assessment (visual analog scale 0-100), mean [2, 9]: 32 | Patients with no radiographic progression ([2]; RA-I, Week 24, RINVOQ 15 mg monotherapy or MTX monotherapy): 78% | CRP [2, 10]: 10.9 mg/L | Number of swollen joints (0-66) [2, 10]: 6 | Number of tender joints (0-68) [2, 10]: 13 | Pain [2, 10]: 41 | Patient global assessment [2, 10]: 42 | Physician global assessment [2, 10]: 32 | mTSS, mean change from baseline (SD) ([2]; Week 24, Trial RA-I, MTX-naïve, monotherapy, RINVOQ 15 mg or MTX): 0.67 (2.8) | Infections, number of patients [3, 11]: 127 patients | Infections, rate [3, 11]: 119.5 per 100 patient-years | Malignancies excluding NMSC, number of patients [3, 11]: 1 patients | Malignancies excluding NMSC, rate [3, 11]: 0.8 per 100 patient-years | Opportunistic infections (excluding tuberculosis), number of patients [3, 11]: 1 patients | Serious infections, number of patients [3, 11]: 2 patients | Serious infections, rate [3, 11]: 1.6 per 100 patient-years | Opportunistic infections (excluding tuberculosis), rate ([3]; MTX-controlled RA-I and RA-II, 12/14 weeks, MTX monotherapy arm): 0.8 per 100 patient-years | ALT elevations ≥3×ULN in at least one measurement, patients [3, 12]: 1.9% | AST elevations ≥3×ULN in at least one measurement, patients [3, 12]: 0.9% | Active tuberculosis cases ([3]; RA MTX-controlled period, 15 mg monotherapy (or MTX monotherapy arm)): no active cases | Gastrointestinal perforations ([3]; RA MTX-controlled trials, 12/14 weeks, 15 mg (or MTX arm)): no cases | CRP ([4]; Baseline, RINVOQ 15 mg or MTX): 14.5 mg/L | Number of swollen joints (0-66) ([4]; Baseline, RINVOQ 15 mg or MTX): 17 | Number of tender joints (0-68) ([4]; Baseline, RINVOQ 15 mg or MTX): 25 | Pain ([4]; Baseline, RINVOQ 15 mg or MTX): 63 | Patient global assessment ([4]; Baseline, RINVOQ 15 mg or MTX): 60 | Physician global assessment ([4]; Baseline, RINVOQ 15 mg or MTX): 62 | ACR20 response, patients [4, 13]: 41% | ACR50 response, patients [4, 13]: 15% | ACR70 response, patients [4, 13]: 3% | DAS28-CRP <2.6, patients [4, 13]: 8% | Venous thrombosis, number of patients ([4]; RA-II through Week 14, 15 mg monotherapy (or MTX monotherapy arm)): 0 patients | CRP, mean ([4]; Baseline, RINVOQ 15 mg or MTX): 14.5 mg/L | Number of swollen joints (0-66), mean ([4]; Baseline, RINVOQ 15 mg or MTX): 17 | Number of tender joints (0-68), mean ([4]; Baseline, RINVOQ 15 mg or MTX): 25 | Pain (visual analog scale 0-100), mean ([4]; Baseline, RINVOQ 15 mg or MTX): 63 | Patient global assessment (visual analog scale 0-100), mean ([4]; Baseline, RINVOQ 15 mg or MTX): 60 | Physician global assessment (visual analog scale 0-100), mean ([4]; Baseline, RINVOQ 15 mg or MTX): 62 | CRP, mean ([4]; Week 14, RINVOQ 15 mg or MTX): 12.8 mg/L | Number of swollen joints (0-66), mean ([4]; Week 14, RINVOQ 15 mg or MTX): 9 | Number of tender joints (0-68), mean ([4]; Week 14, RINVOQ 15 mg or MTX): 15 | Pain (visual analog scale 0-100), mean ([4]; Week 14, RINVOQ 15 mg or MTX): 49 | Patient global assessment (visual analog scale 0-100), mean ([4]; Week 14, RINVOQ 15 mg or MTX): 48 | Physician global assessment (visual analog scale 0-100), mean ([4]; Week 14, RINVOQ 15 mg or MTX): 37 | CRP [4, 14]: 12.8 mg/L | Number of swollen joints (0-66) [4, 14]: 9 | Number of tender joints (0-68) [4, 14]: 15 | Pain [4, 14]: 49 | Patient global assessment [4, 14]: 48 | Physician global assessment [4, 14]: 37
